Consider nine molecules from patent US20150150893A1, “ANDROGRAPHOLIDE ANALOGS AND THEIR USE FOR MEDICATION” (LIAONING LIFENG SCIENTIFIC & TECHNOLOGY DEVELOPMENT COMPANY …, priority 2012, published 2015).

Format in all cases: cell-based
For experiment [1], the system named is Japanese encepahalitis virus. As to conditions: read-out: In-Vitro Antiviral Screening Result (EC50) C.
The next experiment concerns Rift Valley fever virus. The experiment is described as follows: microbe, parasite or virus in culture. As to conditions: read-out: In-Vitro Antiviral Screening Result (EC50) E.
For the next experiment, the system named is SARS coronavirus. The experiment is described as follows: microbe, parasite or virus in culture. As to conditions: Severe acute respiratory syndrome coronavirus, read-out: In-Vitro Antiviral Screening Result (EC50) F.
For experiment [2], the system named is Venezuelan equine encephalitis virus. The experiment is described as follows: microbe, parasite or virus in culture. As to conditions: read-out: In-Vitro Antiviral Screening Result (EC50) G.
The test system of the next experiment is Influenza A virus H1N1. Description: microbe, parasite or virus in culture. As to conditions: H1N1, read-out: In-Vitro Antiviral Screening Result (EC50) H.
The test system of the next experiment is many virus. The experiment is described as follows: Antivirus studies in vitro, summary over the virus panel. As to conditions: read-out: EC50 against many virus. The method, then:
compounds were diluted to 20 mg/mL in DMSO then prepared in for log 10 dilutions of 100 μg/mL down to 0.1 μg/mL) in MEM solution with 50 μg/mL gentamicin and 2% FBS. Each dilution was added to 5 wells of a 96-well plate with 80-100% confluent cells. Three wells of each dilution were infected with virus, and two wells remained uninfected as toxicity controls. The multiplicity of infection (MOI) was as low as possible to achieve CPE within 3-5 days of incubation. A known active compound was tested in parallel as a control. After untreated virus control wells reached maximum cytopathic effect (CPE), each well was scored microscopically. Plates were then stained with neutral red dye for approximately 2 hours, then supernatant dye was removed from the wells and the incorporated dye was extracted in 50:50 Sorensen citrate buffer/ethanol, then the optical density was read on a spectrophotometer.

Regarding `C[C@]12CC[C@@H](O)[C@@](C)(CO)C1CCC1(CO1)C2/C=C/C1=CC(=C\c2ccc(-n3ccnc3)cc2)/OC1=O` (stereo partly drawn) [Example 77, 11,12-dedihydro-14-deoxy-(E)-15-(4-(1H-imidazol-1-yl)benzylidene)-8,17-epoxyandrographolide], the EC50 (as a rule, the midpoint of the concentration-response curve) in experiment [1] is under 100 µg/mL; in the experiment with Rift Valley fever virus, under 50 µg/mL; with SARS coronavirus it was under 100 µg/mL; in experiment [2] it was over 100 µg/mL; in the experiment on Influenza A virus H1N1 it was under 100 µg/mL; in the experiment with many virus it was under 50 µg/mL.
Consider `CN1CCN(c2ccc(/C=C3C=C(/C=C/C4C5(CCC6[C@]4(C)CC[C@@H](O)[C@@]6(C)CO)CO5)C(=O)O\3)cc2)CC1` (stereo partly drawn) [Example 71, 11,12-dedihydro-14-deoxy-(E)-15-(4-(4-methylpiperazin-1-yl)benzylidene)-8,17-epoxyandrographolide], for which the concentration giving a half-maximal response (EC50) in experiment [1] is under 50 µg/mL; in the experiment with Rift Valley fever virus it was over 100 µg/mL; with SARS coronavirus, under 100 µg/mL; in experiment [2] it was under 50 µg/mL; in the experiment with Influenza A virus H1N1 it was under 100 µg/mL; in the experiment with many virus, under 50 µg/mL.
On to `C=C1CCC2C(C)(CO)C(O)CCC2(C)C1/C=C/C1=CC(=C\c2ccc(OC3OC(CO)C(O)C(O)C3O)cc2)/OC1=O` (stereo not drawn) [Example 40, 11,12-dedihydro-14-deoxy-15-(4-((3,4,5-trihydroxy-6-(hydroxymethyl)tetrahydro-2H-pyran-2-yl)oxy)benzylidene)andrographolide], for which the EC50 in experiment [1] was under 100 µg/mL; in the experiment on Rift Valley fever virus it was over 100 µg/mL; in the experiment with SARS coronavirus, under 50 µg/mL; in experiment [2] it was over 100 µg/mL; in the experiment with Influenza A virus H1N1, over 100 µg/mL; in the experiment with many virus, under 50 µg/mL.
Turning to `C=C1CCC2[C@](C)(CC[C@@H](O)[C@@]2(C)CO)C1/C=C/C1=CC(=C\c2ccc(N(C)C)cc2O)/OC1=O` (stereo partly drawn) [Example 44], the EC50 in experiment [1] is over 100 µg/mL; in the experiment on Rift Valley fever virus it was over 100 µg/mL; with SARS coronavirus it was under 50 µg/mL; in experiment [2], over 100 µg/mL; with Influenza A virus H1N1, under 100 µg/mL; in the experiment on many virus, under 50 µg/mL.
`CCN(CC)c1ccc(/C=C2C=C(/C=C/C3C4(CCC5[C@]3(C)CC[C@@H](O)[C@@]5(C)CO)CO4)C(=O)O\2)c(O)c1` (stereo partly drawn) [Example 66]: the EC50 in experiment [1] is under 50 µg/mL; in the experiment on Rift Valley fever virus it was under 100 µg/mL; in the experiment with SARS coronavirus it was under 100 µg/mL; in experiment [2], under 50 µg/mL; in the experiment on Influenza A virus H1N1 it was under 100 µg/mL; in the experiment with many virus it was under 50 µg/mL.
For the molecule `C[C@]12CC[C@@H](O)[C@@](C)(CO)C1CCC1(CO1)C2/C=C/C1=CC(=C\c2cnc(N3CCCC3CO)nc2)/OC1=O` (stereo partly drawn) [Example 69, 11,12-dedihydro-14-deoxy-(E)-15-((2-(2-(hydroxymethyl)pyrrolidin-1-yl)pyrimidin-5-yl)methylene)-8,17-epoxyandrographolide], the concentration for a half-maximal effect (EC50) is over 100 µg/mL in experiment [1]; under 50 µg/mL with Rift Valley fever virus; under 50 µg/mL in the experiment on SARS coronavirus; over 100 µg/mL in experiment [2]; under 100 µg/mL in the experiment with Influenza A virus H1N1; under 50 µg/mL in the experiment on many virus.
Turning to `C=C1CCC2C3(C)COC(c4ccc(OC5OC(CO)C(O)C(O)C5O)cc4)OC3CCC2(C)C1C/C=C1/C(=O)OCC1O` (stereo not drawn) [Example 45, (E)-3-(2-(6a,10b-dimethyl-8-methylene-3-(4-((3,4,5-trihydroxy-6-(hydroxymethyl)tetrahydro-2H-pyran-2-yl)oxy)phenyl)decahydro-1H-naphtho[2,1-d][1,3]dioxin-7-yl)ethylidene)-4-hydroxydihydrofuran-2(3H)-one], the EC50 in experiment [1] is under 50 µg/mL; in the experiment with Rift Valley fever virus, under 50 µg/mL; in the experiment with SARS coronavirus it was under 50 µg/mL; in experiment [2], under 50 µg/mL; in the experiment with Influenza A virus H1N1, over 100 µg/mL; in the experiment on many virus, under 50 µg/mL.
As to `CN(C)c1ccc(/C=C2C=C(/C=C/C3C4(CO4)C(N4CCOCC4)CC4[C@]3(C)CC[C@@H](O)[C@@]4(C)CO)C(=O)O\2)cc1` (stereo partly drawn) [Example 76, 7-(4-morpholino)-11,12-dedihydro-14-deoxy-15-(4-(dimethylamino)benzylidene)andrographolide], the concentration for a half-maximal effect (EC50) was over 100 µg/mL in experiment [1]; under 100 µg/mL in the experiment on Rift Valley fever virus; under 50 µg/mL in the experiment on SARS coronavirus; over 100 µg/mL in experiment [2]; under 100 µg/mL with Influenza A virus H1N1; under 50 µg/mL with many virus.
Take `CN1C(=O)CN2C=C(/C=C3C=C(/C=C/C4C5(CCC6[C@]4(C)CC[C@@H](O)[C@@]6(C)CO)CO5)C(=O)O\3)C=CC21` (stereo partly drawn) [Example 68, 11,12-dedihydro-14-deoxy-(E)-15-((1-methyl-2-oxo-1,2,3,8a-tetrahydroimidazo[1,2-a]pyridin-6-yl)methylene)-8,17-epoxyandrographolide]: the concentration for a half-maximal effect (EC50) in experiment [1] was under 50 µg/mL; with Rift Valley fever virus it was over 100 µg/mL; in the experiment with SARS coronavirus, under 50 µg/mL; in experiment [2], under 50 µg/mL; with Influenza A virus H1N1, over 100 µg/mL; in the experiment on many virus, under 50 µg/mL.
